Measurements as given in ChEMBL document CHEMBL1201862, “PubChem BioAssay data set” (2004).
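Compound exposure: 48 hours, 5 concentrations, 96-well plates. GI50: concentration for 50% inhibition of growth.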 The source made the active and inactive calls. No stated cut-off is given here; in the data, active = GI50 up to about 1.1 µM and inactive = higher.

Key:
Assay in all cases: NCI tumour cell line growth inhibition, 48 h
786-0 = tested on: 786-0
A498 = tested on: A498
A549 = tested on: A549
ACHN = tested on: ACHN
CAKI-1 = tested on: CAKI-1
CCRF-CEM = tested on: CCRF-CEM
COLO 205 = tested on: COLO 205
DLD-1 = tested on: DLD-1
DMS-114 = tested on: DMS-114
EKVX = tested on: EKVX
HCC 2998 = tested on: HCC 2998
HL-60 = tested on: HL-60
HOP-62 = tested on: HOP-62
HOP-92 = tested on: HOP-92
HT-29 = tested on: HT-29
IGROV-1 = tested on: IGROV-1
K562 = tested on: K562
KM-20L2 = tested on: KM-20L2
KM12 = tested on: KM12
LOX IMVI = tested on: LOX IMVI
LXFL 529 = tested on: LXFL 529
M14 = tested on: M14
M19-MEL = tested on: M19-MEL
MOLT-4 = tested on: MOLT-4
Malme-3M = tested on: Malme-3M
NCI-H226 = tested on: NCI-H226
NCI-H23 = tested on: NCI-H23
NCI-H460 = tested on: NCI-H460
NCI-H522 = tested on: NCI-H522
OVCAR-3 = tested on: OVCAR-3
OVCAR-4 = tested on: OVCAR-4
OVCAR-5 = tested on: OVCAR-5
OVCAR-8 = tested on: OVCAR-8
RPMI-8226 = tested on: RPMI-8226
RXF 393 = tested on: RXF 393
RXF 631 = tested on: RXF 631
SF-268 = tested on: SF-268
SF-295 = tested on: SF-295
SF-539 = tested on: SF-539
SK-MEL-28 = tested on: SK-MEL-28
SK-MEL-2 = tested on: SK-MEL-2
SK-MEL-5 = tested on: SK-MEL-5
SK-OV-3 = tested on: SK-OV-3
SN12C = tested on: SN12C
SNB-19 = tested on: SNB-19
SNB-75 = tested on: SNB-75
SNB-78 = tested on: SNB-78
SW-620 = tested on: SW-620
TK-10 = tested on: TK-10
U-251 = tested on: U-251
UACC-257 = tested on: UACC-257
UO-31 = tested on: UO-31
XF498 = tested on: XF498
DMS-273 = tested on: DMS-273
HCT-116 = tested on: HCT-116
HCT-15 = tested on: HCT-15
HOP-18 = tested on: HOP-18
SR = tested on: SR
UACC-62 = tested on: UACC-62

In the case of `CCc1cccc(C)c1NC(=O)C1=C(C)NC(C)=C(C(=O)Nc2c(C)cccc2CC)C1c1ccc2c(c1)OCO2`, the GI50 (786-0) is reported as 16.7 µM (inactive), the GI50 (A498) is reported as 11.3 µM (inactive) and the GI50 (A549) is reported as 16.9 µM (inactive). The GI50 (ACHN) was 15.5 µM (inactive), the GI50 (CAKI-1) was 18.8 µM (inactive) and the GI50 (CCRF-CEM) was 18.8 µM (inactive). The GI50 (COLO 205) was 18.5 µM (inactive), the GI50 (DLD-1) was 20.5 µM (inactive) and the GI50 (DMS-114) was 16.2 µM (inactive). For the same compound, the GI50 (EKVX) was 20.5 µM (inactive), the GI50 (HCC 2998) was 19.7 µM (inactive) and the GI50 (HL-60) was 21.4 µM (inactive). For the same compound, the GI50 (HOP-62) was 20.7 µM (inactive), the GI50 (HOP-92) was 18.2 µM (inactive) and the GI50 (HT-29) was 20.8 µM (inactive). For the same compound, the GI50 (IGROV-1) was 24.7 µM (inactive), the GI50 (K562) was 27.2 µM (inactive) and the GI50 (KM-20L2) was 23.9 µM (inactive). For the same compound, the GI50 (KM12) was 16.4 µM (inactive), the GI50 (LOX IMVI) was 18.3 µM (inactive) and the GI50 (LXFL 529) was 18.2 µM (inactive). The GI50 (M14) was 16.1 µM (inactive), the GI50 (M19-MEL) was 21.4 µM (inactive) and the GI50 (MOLT-4) was 21.2 µM (inactive). The GI50 (Malme-3M) was 15.6 µM (inactive), the GI50 (NCI-H226) was 19.8 µM (inactive) and the GI50 (NCI-H23) was 16.5 µM (inactive). For the same compound, the GI50 (NCI-H460) was 16.1 µM (inactive), the GI50 (NCI-H522) was 15.9 µM (inactive) and the GI50 (OVCAR-3) was 17.5 µM (inactive). For the same compound, the GI50 (OVCAR-4) was 20.1 µM (inactive), the GI50 (OVCAR-5) was 22 µM (inactive) and the GI50 (OVCAR-8) was 29.6 µM (inactive). The GI50 (RPMI-8226) was 16.8 µM (inactive), the GI50 (RXF 393) was 13.2 µM (inactive) and the GI50 (RXF 631) was 20 µM (inactive). The GI50 (SF-268) was 20.3 µM (inactive), the GI50 (SF-295) was 17.5 µM (inactive) and the GI50 (SF-539) was 19.7 µM (inactive). The GI50 (SK-MEL-28) was 15.6 µM (inactive), the GI50 (SK-MEL-2) was 15.1 µM (inactive) and the GI50 (SK-MEL-5) was 16.2 µM (inactive). For the same compound, the GI50 (SK-OV-3) was 48.9 µM (inactive), the GI50 (SN12C) was 19.2 µM (inactive) and the GI50 (SNB-19) was 29.1 µM (inactive). For the same compound, the GI50 (SNB-75) was 9.84 µM (inactive), the GI50 (SNB-78) was 25.8 µM (inactive) and the GI50 (SW-620) was 20.2 µM (inactive). The GI50 (TK-10) was 26.6 µM (inactive), the GI50 (U-251) was 15.2 µM (inactive) and the GI50 (UACC-257) was 18.5 µM (inactive). For the same compound, the GI50 (UO-31) was 15.3 µM (inactive) and the GI50 (XF498) was 15.7 µM (inactive).
`COc1ccc(/C=N/NS(=O)(=O)c2ccccc2)cc1` was tested, and the GI50 (786-0) was > 100 µM (inactive), the GI50 (A498) was > 100 µM (inactive) and the GI50 (A549) was > 100 µM (inactive). For the same compound, the GI50 (ACHN) was > 100 µM (inactive), the GI50 (CAKI-1) was > 100 µM (inactive) and the GI50 (CCRF-CEM) was > 100 µM (inactive). For the same compound, the GI50 (COLO 205) was > 100 µM (inactive), the GI50 (DLD-1) was > 100 µM (inactive) and the GI50 (DMS-114) was 63.1 µM (inactive). For the same compound, the GI50 (DMS-273) was > 100 µM (inactive), the GI50 (EKVX) was > 100 µM (inactive) and the GI50 (HCC 2998) was > 100 µM (inactive). For the same compound, the GI50 (HCT-116) was > 100 µM (inactive), the GI50 (HCT-15) was greater than 100 µM and the GI50 (HL-60) was > 100 µM (inactive). For the same compound, the GI50 (HOP-18) was > 100 µM (inactive), the GI50 (HOP-62) was > 100 µM (inactive) and the GI50 (HOP-92) was > 100 µM (inactive). For the same compound, the GI50 (HT-29) was > 100 µM (inactive), the GI50 (IGROV-1) was > 100 µM (inactive) and the GI50 (K562) was > 100 µM (inactive). For the same compound, the GI50 (KM-20L2) was > 100 µM (inactive), the GI50 (KM12) was > 100 µM (inactive) and the GI50 (LOX IMVI) was > 100 µM (inactive). The GI50 (LXFL 529) was > 100 µM (inactive), the GI50 (M14) was > 100 µM (inactive) and the GI50 (M19-MEL) was > 100 µM (inactive). For the same compound, the GI50 (MOLT-4) was > 100 µM (inactive), the GI50 (Malme-3M) was > 100 µM (inactive) and the GI50 (NCI-H226) was > 100 µM (inactive). For the same compound, the GI50 (NCI-H23) was > 100 µM (inactive), the GI50 (NCI-H460) was > 100 µM (inactive) and the GI50 (OVCAR-3) was > 100 µM (inactive). The GI50 (OVCAR-4) was > 100 µM (inactive), the GI50 (OVCAR-5) was > 100 µM (inactive) and the GI50 (OVCAR-8) was > 100 µM (inactive). For the same compound, the GI50 (RPMI-8226) was > 100 µM (inactive), the GI50 (RXF 393) was > 100 µM (inactive) and the GI50 (SF-268) was > 100 µM (inactive). For the same compound, the GI50 (SF-295) was 93.5 µM (inactive), the GI50 (SF-539) was > 100 µM (inactive) and the GI50 (SK-MEL-28) was > 100 µM (inactive). The GI50 (SK-MEL-2) was > 100 µM (inactive), the GI50 (SK-MEL-5) was > 100 µM (inactive) and the GI50 (SK-OV-3) was > 100 µM (inactive). For the same compound, the GI50 (SN12C) was > 100 µM (inactive), the GI50 (SNB-75) was > 100 µM (inactive) and the GI50 (SNB-78) was > 100 µM (inactive). For the same compound, the GI50 (SR) was > 100 µM (inactive), the GI50 (SW-620) was > 100 µM (inactive) and the GI50 (TK-10) was > 100 µM (inactive). The GI50 (U-251) was > 100 µM (inactive), the GI50 (UACC-257) was > 100 µM (inactive) and the GI50 (UACC-62) was > 100 µM (inactive). The GI50 (UO-31) was > 100 µM (inactive) and the GI50 (XF498) was > 100 µM (inactive).
